These results are taken from US5830770A, “Hapten-protein conjugates for use in detection of organophosphorus compounds” (priority 1993, dated 1998).

Where two headings read alike, the source gives them in different places.

In one test the test system is antisera from rabbit 20. The class given is binding. Further details: key to cross reactivity by inhibition ELISA, Rabbit 20: +++: strong; ++: medium; +: weak reaction; poor: slight; -: none. Conditions: for concentration for 50% inhibition: Rabbit 20; for cross reactivity by inhibition ELISA, Rabbit 20: antisera 1:2000, 2 hours at 25° C. The protocol:
(§1) An ELISA was used to screen the antisera for polyclonal antibodies to the generic hapten/conjugate of the invention using the following protocol. Microtitre plates (Costar) were coated with the appropriate hapten conjugate with ovalbumin by diluting that in 0.05M sodium hydrogen carbonate/sodium carbonate buffer (pH 9.6) to give an optimum protein concentration of 1 μg/ml previously determined by chequerboard titration; protein found by Bradford assay. 100 μl was added to each microtitre plate well and the plates placed in a moist chamber overnight, washed 3 times with 0.15 phosphate buffered saline pH7.2 with 0.05% Tween 20[RTM]: PBST), and blotted dry. Blocking was carried out by adding 250 μl per well of 5% skimmed milk for 1 hour at 25° C.
(§2) After two further washings the coated microplates were stored at -20° C. until required, whereon they were washed once with PBST. Antisera were diluted (1/1000 for general screening or doubling dilutions up to 1/512,000 for titration assays) in PSBT, applied to microtitre wells in triplicate in 50 μl amounts and incubated in a moist chamber at 25° C. for 1 hour (appropriate positive and negative controls were included--PBST, negative rabbit serum and positive serum when it had been produced). Wells were then washed 3 times in PBST and 200 μl of a 1:1500 dilution of swine anti-rabbit immunoglobulin conjugated to horseradish peroxidase (DAKO) was added to each well. Plates were incubated once more for 1 hour at 25° C. then washed 3 times with PBST.
(§3) Tetramethylbenzidine (TMB) enzyme substrate solution was prepared by adding 400 μl of 6.0 g/l TMB in DMSO to 24.5 ml of 0.1M sodium acetate buffer pH5.5 with 100 μl of 1% H2 O2 and 100 μl added to the wells. The microplates were incubated for 15 minutes in the dark at 25° C. before the reaction was stopped by adding 50 μl of 2.5M H2 SO4 and the absorbance read at 450 nm against air. Results: are given below with those of Example 6.
(§4) Assay was carried out in the same manner as Example 5 with the following modifications. Antisera was diluted 1:2000 with 1% BSA in PBST and 100 μl was incubated for 2 hours at 25° C. with 100 μl of each concentration of the unconjugated OP--in this case the generic part--in a microtitration plate. Concentrations of OP ranged from 200 to 0.001 μg ml^-1.
(§5) Cross reactivity of antisera from rabbits 19, 20 and 21 by inhibition ELISA with the various organophosphorus pesticides is shown in Table 5 in which concentration (μg ml^-1) for 50% inhibition to occur is given together with the diluent in which this is achieved--PBST or % methanol in PBST for figures.
For orientation: An ELISA detects its analyte on a solid surface through an enzyme-linked reagent.

In the next test the test system is generic antibodies. Put plainly: Relative inhibition of binding of generic antibodies to hapten conjugate. Further details: species or system rabbit. The settings on record: inhibition at 100 μg/ml minus inhibition at 0.1 μg/ml organophosphate. How it is done:
as §4

For a further test, the system named is antisera from rabbit 19. The class given is binding. Conditions: antisera 1:2000, 2 hours at 25° C. The arrangement: key: +++: strong; ++: medium; +: weak reaction; poor: slight; -: none. The protocol: as §1, §2, §3, §4, §5
A further test deals with antisera from rabbit 21. It is filed as binding. The arrangement: key: +++: strong; ++: medium; +: weak reaction; poor: slight; -: none. Conditions: antisera 1:2000, 2 hours at 25° C. How it is done:
as §1, §2, §3, §4, §5

Turning to `COP(=O)(OC)OC=C(Cl)Cl` [Dichlorvos, dichlorvos], the “concentration for 50% inhibition” value in the test on antisera from rabbit 20 (diluent PBST) came out at 91.1 µg/mL. Also, in the test with antisera from rabbit 20, the “cross reactivity by inhibition ELISA, Rabbit 20” value is “++”. Further, the “Relative inhibition of binding of generic antibodies to hapten conjugate as % of hapten + spacer inhibition” value in the test with generic antibodies is reported as 60.0%. Besides, in the test on antisera from rabbit 19, the “cross reactivity by inhibition ELISA, Rabbit 19” value is given as “++”. For the same compound, in the test on antisera from rabbit 21, the “cross reactivity by inhibition ELISA, Rabbit 21” value is “+”.
For `CNC(=O)CSP(=S)(OC)OC` [Dimethoate, dimethoate], in the test with antisera from rabbit 20 (diluent 10% methanol in PBST), the “concentration for 50% inhibition” value is > 150 µg/mL. In the test on antisera from rabbit 20, the “cross reactivity by inhibition ELISA, Rabbit 20” value is given as “++”. Also, the “Relative inhibition of binding of generic antibodies to hapten conjugate as % of hapten + spacer inhibition” value with generic antibodies is recorded as 41.4%. In addition, in the test on antisera from rabbit 19, the “cross reactivity by inhibition ELISA, Rabbit 19” value is “-”. Moreover, the “cross reactivity by inhibition ELISA, Rabbit 21” value with antisera from rabbit 21 is “+”.
For `COP(=S)(OC)Oc1ccc([N+](=O)[O-])c(C)c1` [Fenitrothion, fenitrothion] the same measures were 4.8 µg/mL, “+++”, 90.1%, “+” and “+”.
With `CCOP(=O)(OCC)OC(=CCl)c1ccc(Cl)cc1Cl` [Chlorfenvinphos, chlorfenvinphos], the “cross reactivity by inhibition ELISA, Rabbit 20” value with antisera from rabbit 20 is “+”. Moreover, the “Relative inhibition of binding of generic antibodies to hapten conjugate as % of hapten + spacer inhibition” value with generic antibodies was determined as 33.4%. Also, in the test on antisera from rabbit 19, the “cross reactivity by inhibition ELISA, Rabbit 19” value was “-”. For the same compound, the “cross reactivity by inhibition ELISA, Rabbit 21” value in the test on antisera from rabbit 21 is given as “+”.
`CCOc1cc(OP(=S)(OC)OC)nc(CC)n1` [Etrimfos, etrimfos]: in the test on antisera from rabbit 20, the “cross reactivity by inhibition ELISA, Rabbit 20” value was “+”. In addition, the “Relative inhibition of binding of generic antibodies to hapten conjugate as % of hapten + spacer inhibition” value with generic antibodies is reported as 30.8%. Besides, the “cross reactivity by inhibition ELISA, Rabbit 19” value with antisera from rabbit 19 is “-”. In addition, the “cross reactivity by inhibition ELISA, Rabbit 21” value in the test on antisera from rabbit 21 is “poor”.
On to `OCCCCO` [Spacer, 1,4 butanediol], for which the “cross reactivity by inhibition ELISA, Rabbit 20” value in the test with antisera from rabbit 20 is “-”. Also, the “cross reactivity by inhibition ELISA, Rabbit 19” value in the test on antisera from rabbit 19 is recorded as “-”. The “cross reactivity by inhibition ELISA, Rabbit 21” value in the test on antisera from rabbit 21 is listed as “-”.
`COP(=O)(OC)O/C(=C\Cl)c1cc(Cl)c(Cl)cc1Cl` [Tetrachlorvinphos, tetrachlorvinphos]: the “cross reactivity by inhibition ELISA, Rabbit 20” value with antisera from rabbit 20 was “poor”. Moreover, the “Relative inhibition of binding of generic antibodies to hapten conjugate as % of hapten + spacer inhibition” value in the test on generic antibodies is on record as 27.2%. For the same compound, in the test on antisera from rabbit 19, the “cross reactivity by inhibition ELISA, Rabbit 19” value is listed as “-”. In the test on antisera from rabbit 21, the “cross reactivity by inhibition ELISA, Rabbit 21” value is on record as “poor”.
`O=C(O)CNCP(=O)(O)O` [Glyphospate]: the “cross reactivity by inhibition ELISA, Rabbit 20” value in the test with antisera from rabbit 20 is listed as “-”. In the test with antisera from rabbit 19, the “cross reactivity by inhibition ELISA, Rabbit 19” value was “-”. For the same compound, the “cross reactivity by inhibition ELISA, Rabbit 21” value in the test on antisera from rabbit 21 is recorded as “-”.
Consider `COP(=S)(OC)Oc1nc(Cl)c(Cl)cc1Cl` [Chlorpyrifos-methyl], for which the “cross reactivity by inhibition ELISA, Rabbit 20” value in the test with antisera from rabbit 20 was “poor”. For the same compound, in the test on generic antibodies, the “Relative inhibition of binding of generic antibodies to hapten conjugate as % of hapten + spacer inhibition” value is 29.2%. Moreover, the “cross reactivity by inhibition ELISA, Rabbit 19” value with antisera from rabbit 19 was “poor”. The “cross reactivity by inhibition ELISA, Rabbit 21” value with antisera from rabbit 21 is recorded as “poor”.
On to `CCNP(=S)(OC)O/C(C)=C/C(=O)OC(C)C` (stereo not drawn) [Propetamphos, propetamphos], for which the “concentration for 50% inhibition” value with antisera from rabbit 20 (diluent 10% methanol in PBST) turned out to be 36.2 µg/mL. The “cross reactivity by inhibition ELISA, Rabbit 20” value with antisera from rabbit 20 is given as “+++”. The “Relative inhibition of binding of generic antibodies to hapten conjugate as % of hapten + spacer inhibition” value in the test on generic antibodies was 75.9%. Besides, the “cross reactivity by inhibition ELISA, Rabbit 19” value in the test with antisera from rabbit 19 is “+”. Also, the “cross reactivity by inhibition ELISA, Rabbit 21” value in the test on antisera from rabbit 21 was “++”.
`CCN(CC)c1nc(C)cc(OP(=S)(OC)OC)n1` [Pirimiphos-methyl, pirimiphos-methyl]: the “cross reactivity by inhibition ELISA, Rabbit 20” value in the test on antisera from rabbit 20 is “poor”. In addition, the “Relative inhibition of binding of generic antibodies to hapten conjugate as % of hapten + spacer inhibition” value in the test on generic antibodies amounted to 21.1%. The “cross reactivity by inhibition ELISA, Rabbit 19” value in the test on antisera from rabbit 19 was “-”. Moreover, the “cross reactivity by inhibition ELISA, Rabbit 21” value in the test on antisera from rabbit 21 was “-”.
As for `CCOC(=O)CC(SP(=S)(OC)OC)C(=O)OCC` (stereo not drawn) [Malathion, malathion], the “cross reactivity by inhibition ELISA, Rabbit 20” value with antisera from rabbit 20 is “+”. Besides, the “Relative inhibition of binding of generic antibodies to hapten conjugate as % of hapten + spacer inhibition” value in the test on generic antibodies stood at 38.6%. Also, in the test with antisera from rabbit 19, the “cross reactivity by inhibition ELISA, Rabbit 19” value is on record as “-”. Moreover, in the test with antisera from rabbit 21, the “cross reactivity by inhibition ELISA, Rabbit 21” value is “-”.
Take `COP(=S)(OC)OCCCCO` [Hapten + spacer, (CH3 O)2 P(S)--O--(CH2)4 --OH]: the “concentration for 50% inhibition” value in the test with antisera from rabbit 20 (diluent PBST) stood at 3.0 µg/mL. Further, in the test on antisera from rabbit 20, the “cross reactivity by inhibition ELISA, Rabbit 20” value was “+++”. For the same compound, in the test with generic antibodies, the “Relative inhibition of binding of generic antibodies to hapten conjugate as % of hapten + spacer inhibition” value turned out to be 100.0%. The “cross reactivity by inhibition ELISA, Rabbit 19” value in the test on antisera from rabbit 19 was “+++”. For the same compound, the “cross reactivity by inhibition ELISA, Rabbit 21” value in the test on antisera from rabbit 21 was “+++”.
As to `COC(=O)/C(C)=C/OP(=S)(OC)OC` [Methacrifos, methacrifos], the “concentration for 50% inhibition” value in the test with antisera from rabbit 20 (diluent PBST) was found to be 8.2 µg/mL. Also, the “cross reactivity by inhibition ELISA, Rabbit 20” value in the test on antisera from rabbit 20 is “+++”. Further, the “Relative inhibition of binding of generic antibodies to hapten conjugate as % of hapten + spacer inhibition” value in the test on generic antibodies is 89.1%. The “cross reactivity by inhibition ELISA, Rabbit 19” value with antisera from rabbit 19 is “+”. Moreover, the “cross reactivity by inhibition ELISA, Rabbit 21” value with antisera from rabbit 21 was “+”.
